Measured values published in US20140086901A1, “Inhibition of Post-Radiation Tumor Growth” (The Board of Trustees of the Leland Stanford Junior …, priority 2008, published 2014).
Where two headings read alike, the source gives them in different places.

Assays:
[1] = Body weight monitoring during drug treatment to assess side effects; settings: for loss in body weight during treatment: mice
[2] = tested on: CD45+CD11b+ and CD45+F4/80+ cells; test: Immunostaining of brain samples for BM-derived myelomonocytic cells in glioblastoma tumors; format: in vivo, mouse; settings: irradiation plus drug; harvested 18 days after irradiation
Description: Primary antibodies for immunofluorescent staining included a rat monoclonal CD31/PECAM-1 (MEC13.3; BD Pharmingen, San Diego, Calif.), a rabbit polyclonal GFP antibody (Invitrogen, Eugene, Oreg.), a rabbit polyclonal MMP-9 (Abeam, Cambridge, Mass.), a biotinylated CD11b/macrophage-associated antigen-1α (M1/70; BD Pharmingen), a biotinylated CD11c (HL3; BD Pharmingen), a biotinylated Gr-1/Ly-6C (RB6-8C5; BD Pharmingen), rat monoclonal F4/80 (A3-1, Gnetex, Irvine, Calif.), and CD45 (BD Pharmingen). Anti phosphorylated CXCR-4 polyclonal antibody was obtained from Dr. J B Rubbin at Washington University.
Unless otherwise indicated, […] frozen sections of tumors were dried in air, hydrated with PBS, blocked with 5% goat serum in PBS (containing 0.03% Triton X-100) for 30 min, and incubated with primary antibodies for 2 hr at room temperature (RT). Sections were washed three times in PBS, followed by secondary antibody for 1 hr at RT. For glioblastomas, 5 μm frozen sections of tumors were dried in air, hydrated with PBS, blocked with 5% goat serum in PBS (containing 0.03% Triton X-100) for 30 min, and incubated with primary antibodies over night at 4° C. Sections were washed three times in PBS, followed by secondary antibody for 40 min at room temperature. […]

glioblastoma tumors = test: Intracranial glioblastoma tumor growth with or without irradiation (bioluminescence imaging); format: in vivo, mouse
Protocol: Tumor growth was analyzed by using an IVIS in vivo imaging system (Caliper Life Sciences, Hopkinton, Mass.) to monitor the bioluminescence imaging of brain tumor.
AMD3100 (Sigma-Aldrich) was prepared in sterile saline.
After tumor inoculation on brain, carragenan treatment was done every five days.

[3] = mouse, in vivo
MT1A2 tumors = test: MT1A2 tumor growth on pre-irradiated tissues of BM-transplanted mice; settings: 100 μg/kg intraperitoneally once per day for up to 6 weeks

Molecule: N#Cc1ccc(/C=C/C(=O)O)cc1 [NSC-134754]
- loss in body weight during treatment [1]: did not show any significant loss in the weight
- CD45+CD11b+ cells in glioblastoma tumors [2]: absence
- CD45+F4/80+ cells in glioblastoma tumors [2]: absence
- post-irradiation tumor growth (glioblastoma tumors; irradiation on day 20 plus drug daily for three weeks): decreased post-irradiation tumor growth

Molecule: carrageenan
- loss in body weight during treatment [3]: did not show any significant loss in the weight
- growth of irradiated tumors (glioblastoma tumors; treated 1, 3 and 7 days prior to implantation, then every five days, 15 Gy on day 26): significantly inhibited

Molecule: O=P(O)(O)C(O)(Cn1ccnc1)P(=O)(O)O [ZA, aminobisphosphonate zolendronic acid]
- loss in weight during treatment ([1]; treated every day): less than 10 % of body weight
- tumor growth on the irradiated site (MT1A2 tumors; MMP-9 KO+WT BM mice): significant inhibition of tumor growth
- tumor growth on pre-irradiated tissues (MT1A2 tumors; WT+KO BM mice): no effect on tumor growth

Molecule: c1cc(CN2CCCNCCNCCCNCC2)ccc1CN1CCCNCCNCCCNCC1 [AMD3100]
- loss in body weight during treatment [1]: did not show any significant loss in the weight
- growth of irradiated tumors (glioblastoma tumors; early tumor model, 2 Gy five times from day 11, drug for three weeks): significantly inhibited
- growth of irradiated tumors (glioblastoma tumors; late tumor model, 15 Gy on day 21, drug for three weeks): significantly inhibited
